Measurements: PubChem BioAssay (NCI)
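Grown in 96-well plates, cells were treated for 48 hours with each compound at five concentrations. Insufficient inhibition: endpoint recorded as highest concentration tested. GI50 is the concentration that inhibits growth by half. TGI is the concentration that stops growth completely.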

Key:
Assay in all cases: NCI-60 cell line screen, 48 h
UACC-62 melanoma = system: UACC-62 melanoma
U251 CNS = system: U251 CNS
MOLT-4 leukemia = system: MOLT-4 leukemia
SN12C renal = system: SN12C renal
UACC-257 melanoma = system: UACC-257 melanoma
HOP-62 NSCLC = system: HOP-62 NSCLC
SK-MEL-28 melanoma = system: SK-MEL-28 melanoma
M14 melanoma = system: M14 melanoma
OVCAR-5 ovarian = system: OVCAR-5 ovarian
NCI-H23 lung = system: NCI-H23 lung
SF-268 CNS = system: SF-268 CNS
PC-3 prostate = system: PC-3 prostate
SNB-19 CNS = system: SNB-19 CNS
SNB-75 CNS = system: SNB-75 CNS
RXF 393 renal = system: RXF 393 renal
SR leukemia = system: SR leukemia
TK-10 renal = system: TK-10 renal
NCI-H226 lung = system: NCI-H226 lung
MDA-MB-435 = system: MDA-MB-435
HT29 colon = system: HT29 colon
A549 NSCLC = system: A549 NSCLC
HS 578T breast = system: HS 578T breast
SK-MEL-5 melanoma = system: SK-MEL-5 melanoma
HL-60(TB) leukemia = system: HL-60(TB) leukemia
HCC-2998 colon = system: HCC-2998 colon
ACHN renal = system: ACHN renal
COLO 205 colon = system: COLO 205 colon
HOP-92 NSCLC = system: HOP-92 NSCLC
SK-MEL-2 melanoma = system: SK-MEL-2 melanoma
NCI-H460 lung = system: NCI-H460 lung
CCRF-CEM leukemia = system: CCRF-CEM leukemia
NCI-H522 lung = system: NCI-H522 lung
SF-539 CNS = system: SF-539 CNS
A498 renal = system: A498 renal
HCT-15 colon = system: HCT-15 colon
786-0 renal = system: 786-0 renal
MDA-MB-231 breast = system: MDA-MB-231 breast
HCT-116 colon = system: HCT-116 colon
SF-295 CNS = system: SF-295 CNS
LOX IMVI melanoma = system: LOX IMVI melanoma
RPMI-8226 leukemia = system: RPMI-8226 leukemia
T-47D breast = system: T-47D breast
DU-145 prostate = system: DU-145 prostate
OVCAR-4 ovarian = system: OVCAR-4 ovarian
MALME-3M melanoma = system: MALME-3M melanoma
K-562 leukemia = system: K-562 leukemia
SK-OV-3 ovarian = system: SK-OV-3 ovarian
OVCAR-8 ovarian = system: OVCAR-8 ovarian
IGROV1 ovarian = system: IGROV1 ovarian
OVCAR-3 ovarian = system: OVCAR-3 ovarian
UO-31 renal = system: UO-31 renal
KM12 colon = system: KM12 colon
NCI/ADR-RES ovarian = system: NCI/ADR-RES ovarian
CAKI-1 renal = system: CAKI-1 renal
SW-620 colon = system: SW-620 colon

In the case of COc1ccc(-c2ccc(-c3ccc(C(=N)N)s3)s2)cc1, the GI50 (UACC-62 melanoma) is reported as 188 nM, the TGI (UACC-62 melanoma) is reported as 357 nM and the GI50 (U251 CNS) is reported as 179 nM. It also gave a TGI (U251 CNS) of 337 nM, a GI50 (MOLT-4 leukemia) of 315 nM and a TGI (MOLT-4 leukemia) of 849 nM. It also gave a GI50 (SN12C renal) of 205 nM, a TGI (SN12C renal) of 465 nM and a GI50 (UACC-257 melanoma) of 746 nM. The TGI (UACC-257 melanoma) was 1680 nM, the GI50 (HOP-62 NSCLC) was 214 nM and the TGI (HOP-62 NSCLC) was 446 nM. It also gave a GI50 (SK-MEL-28 melanoma) of 187 nM, a TGI (SK-MEL-28 melanoma) of 348 nM and a GI50 (M14 melanoma) of 180 nM. The TGI (M14 melanoma) was 344 nM, the GI50 (OVCAR-5 ovarian) was 197 nM and the TGI (OVCAR-5 ovarian) was 430 nM. For the same molecule, the GI50 (NCI-H23 lung) was 264 nM, the TGI (NCI-H23 lung) was 660 nM and the GI50 (SF-268 CNS) was 211 nM. For the same molecule, the TGI (SF-268 CNS) was 451 nM, the GI50 (PC-3 prostate) was 167 nM and the TGI (PC-3 prostate) was 318 nM. For the same molecule, the GI50 (SNB-19 CNS) was 310 nM, the TGI (SNB-19 CNS) was 1410 nM and the GI50 (SNB-75 CNS) was 1390 nM. The TGI (SNB-75 CNS) was 2910 nM, the GI50 (RXF 393 renal) was 1260 nM and the TGI (RXF 393 renal) was 3.05 µM. It also gave a GI50 (SR leukemia) of 208 nM, a TGI (SR leukemia) of 566 nM and a GI50 (TK-10 renal) of 175 nM. The TGI (TK-10 renal) was 337 nM, the GI50 (NCI-H226 lung) was 2060 nM and the TGI (NCI-H226 lung) was 5.15 µM. The GI50 (MDA-MB-435) was 179 nM, the TGI (MDA-MB-435) was 336 nM and the GI50 (HT29 colon) was 181 nM. For the same molecule, the TGI (HT29 colon) was 375 nM, the GI50 (A549 NSCLC) was 195 nM and the TGI (A549 NSCLC) was 393 nM. The GI50 (HS 578T breast) was 295 nM, the TGI (HS 578T breast) was 1410 nM and the GI50 (SK-MEL-5 melanoma) was 1210 nM. It also gave a TGI (SK-MEL-5 melanoma) of 2870 nM, a GI50 (HL-60(TB) leukemia) of 208 nM and a TGI (HL-60(TB) leukemia) of 423 nM. It also gave a GI50 (HCC-2998 colon) of 273 nM, a TGI (HCC-2998 colon) of 699 nM and a GI50 (ACHN renal) of 190 nM. It also gave a TGI (ACHN renal) of 359 nM, a GI50 (COLO 205 colon) of 309 nM and a TGI (COLO 205 colon) of 916 nM. For the same molecule, the GI50 (HOP-92 NSCLC) was 1160 nM, the TGI (HOP-92 NSCLC) was 2710 nM and the GI50 (SK-MEL-2 melanoma) was 2220 nM. The TGI (SK-MEL-2 melanoma) was 4.14 µM, the GI50 (NCI-H460 lung) was 192 nM and the TGI (NCI-H460 lung) was 364 nM. The GI50 (CCRF-CEM leukemia) was 208 nM, the TGI (CCRF-CEM leukemia) was 485 nM and the GI50 (NCI-H522 lung) was 264 nM. For the same molecule, the TGI (NCI-H522 lung) was 1200 nM, the GI50 (SF-539 CNS) was 188 nM and the TGI (SF-539 CNS) was 346 nM. The GI50 (A498 renal) was 1100 nM, the TGI (A498 renal) was 2410 nM and the GI50 (HCT-15 colon) was 195 nM. It also gave a TGI (HCT-15 colon) of 415 nM, a GI50 (786-0 renal) of 187 nM and a TGI (786-0 renal) of 378 nM. It also gave a GI50 (MDA-MB-231 breast) of 186 nM, a TGI (MDA-MB-231 breast) of 371 nM and a GI50 (HCT-116 colon) of 179 nM. The TGI (HCT-116 colon) was 342 nM, the GI50 (SF-295 CNS) was 188 nM and the TGI (SF-295 CNS) was 395 nM. For the same molecule, the GI50 (LOX IMVI melanoma) was 191 nM, the TGI (LOX IMVI melanoma) was 382 nM and the GI50 (RPMI-8226 leukemia) was 221 nM. For the same molecule, the TGI (RPMI-8226 leukemia) was 469 nM, the GI50 (T-47D breast) was 243 nM and the TGI (T-47D breast) was 596 nM. It also gave a GI50 (DU-145 prostate) of 193 nM, a TGI (DU-145 prostate) of 357 nM and a GI50 (OVCAR-4 ovarian) of 187 nM. For the same molecule, the TGI (OVCAR-4 ovarian) was 399 nM, the GI50 (MALME-3M melanoma) was 564 nM and the TGI (MALME-3M melanoma) was 1390 nM. The GI50 (K-562 leukemia) was 184 nM, the TGI (K-562 leukemia) was 426 nM and the GI50 (SK-OV-3 ovarian) was 2140 nM. It also gave a TGI (SK-OV-3 ovarian) of 4.3 µM, a GI50 (OVCAR-8 ovarian) of 219 nM and a TGI (OVCAR-8 ovarian) of 500 nM. The GI50 (IGROV1 ovarian) was 244 nM, the TGI (IGROV1 ovarian) was 509 nM and the GI50 (OVCAR-3 ovarian) was 194 nM. For the same molecule, the TGI (OVCAR-3 ovarian) was 352 nM, the GI50 (UO-31 renal) was 181 nM and the TGI (UO-31 renal) was 355 nM. The GI50 (KM12 colon) was 190 nM, the TGI (KM12 colon) was 357 nM and the GI50 (NCI/ADR-RES ovarian) was 416 nM. For the same molecule, the TGI (NCI/ADR-RES ovarian) was 1600 nM, the GI50 (CAKI-1 renal) was 345 nM and the TGI (CAKI-1 renal) was 1190 nM. For the same molecule, the GI50 (SW-620 colon) was 180 nM and the TGI (SW-620 colon) was 353 nM.
